Assay results from patent US20180008587A1, “THIOHYDANTOIN ANDROGEN RECEPTOR ANTAGONISTS FOR THE TREATMENT OF CANCER” (Jaressen Pharmaceutica NV, priority 2016, published 2018).
Where a chain is given by its changes, count along the chain named. Read-outs that look alike come from different tables or passages of the source.

Assays:
Format in all cases: cell-based
[1] = molecular target: T1, F876L mutant Androgen Receptor (AR-F876L) (Homo sapiens, UniProt P10275, F877L); experiment: LNCaP-AR-F876L AG reporter assay (ARE firefly luciferase, agonist mode); settings: for Emax: read-out: LNCaP-AR-F876L AG MAX % Stim
T1 construct: expressed in transfected cells; host or cells: LNCaP (LNCaP F876L)
T1 sequence (P10275 1-920 F877L): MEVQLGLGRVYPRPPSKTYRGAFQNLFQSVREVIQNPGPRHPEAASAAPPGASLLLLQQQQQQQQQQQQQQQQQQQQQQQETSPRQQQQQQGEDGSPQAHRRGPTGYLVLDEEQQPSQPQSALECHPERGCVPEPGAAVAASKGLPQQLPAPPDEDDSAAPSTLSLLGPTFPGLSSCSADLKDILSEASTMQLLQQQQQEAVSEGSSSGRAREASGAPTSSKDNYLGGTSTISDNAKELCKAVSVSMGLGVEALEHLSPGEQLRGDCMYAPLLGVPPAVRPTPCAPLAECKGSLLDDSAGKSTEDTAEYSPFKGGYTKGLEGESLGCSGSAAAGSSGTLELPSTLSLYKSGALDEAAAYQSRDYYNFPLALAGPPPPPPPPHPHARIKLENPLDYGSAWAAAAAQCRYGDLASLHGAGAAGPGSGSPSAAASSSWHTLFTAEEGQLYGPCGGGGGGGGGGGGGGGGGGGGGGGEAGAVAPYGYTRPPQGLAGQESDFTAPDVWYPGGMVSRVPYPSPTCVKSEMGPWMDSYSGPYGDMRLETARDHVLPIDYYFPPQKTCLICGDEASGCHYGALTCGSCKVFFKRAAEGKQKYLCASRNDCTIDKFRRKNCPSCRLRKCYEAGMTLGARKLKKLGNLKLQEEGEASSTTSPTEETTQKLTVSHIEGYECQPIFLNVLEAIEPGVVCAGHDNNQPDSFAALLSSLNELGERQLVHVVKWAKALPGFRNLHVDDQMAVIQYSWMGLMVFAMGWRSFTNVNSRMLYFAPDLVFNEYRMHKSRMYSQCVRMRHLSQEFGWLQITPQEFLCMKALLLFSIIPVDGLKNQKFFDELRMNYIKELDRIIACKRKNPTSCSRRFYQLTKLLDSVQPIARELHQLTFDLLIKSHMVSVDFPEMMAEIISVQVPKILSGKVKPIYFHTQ
How it was run: (§1)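 Read-out is luciferase luminescence taken 1 h after Steady-Glo addition, following 20-24 h compound exposure at 37 °C in LNCaP pools stably carrying wild-type or F876L AR. Cells were grown in charcoal-stripped serum. Antagonist wells received agonist at 400 pM (WT) or 600 pM (F876L).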

[2] = molecular target: T1, F876L mutant Androgen Receptor (AR-F876L); experiment: LNCaP-AR-F876L ANT reporter assay (ARE firefly luciferase, antagonist mode); settings: for Emax: read-out: LNCaP-AR-F876L ANT MAX % Inh; for IC50: read-out: LNCaP-AR-F876L ANT pIC50 (converted)
How it was run: as §1

[3] = molecular target: T2, wild-type Androgen Receptor (AR-wt) (Homo sapiens, UniProt P10275); experiment: LNCaP-AR-wt ANT reporter assay (ARE firefly luciferase, antagonist mode); settings: for IC50: antagonist mode, 400 pM R-1881 challenge, −Log10(IC50 [Molar]), read-out: LNCaP-AR-wt ANT pIC50 (converted); for Emax: read-out: LNCaP-AR-wt ANT MAX % Inh
T2 construct: expressed in transfected cells; host or cells: LNCaP (LNCaP AR (cs))
T2 sequence (P10275 1-920): T1 sequence (P10275 1-920 F877L) with L877F
How it was run: as §1

[4] = molecular target: T2, wild-type Androgen Receptor (AR-wt); experiment: LNCaP-AR-wt AG reporter assay (ARE firefly luciferase, agonist mode); settings: for Emax: read-out: LNCaP-AR-wt AG MAX % Stim
How it was run: as §1

[5] = agonist mode, −Log10(EC50 [Molar]), read-out: LNCaP-AR-F876L AG pEC50 (converted)
[6] = maximum % stimulation (agonist response) over tested concentration range
[7] = maximum % inhibition of R1881 control response over tested concentration range
[8] = agonist mode, −Log10(EC50 [Molar]), read-out: LNCaP-AR-wt AG pEC50 (converted)

SMILES	EC50 [1, 5] [nM]	Emax [1, 6] [%]	Emax [2, 7] [%]	IC50 [2] [nM]	IC50 [3] [nM]	Emax [3, 7] [%]	EC50 [4, 8] [nM]	Emax [4, 6] [%]	EC50 [1] [nM]	Emax [1] [%]	Emax [2] [%]	Emax [3] [%]	EC50 [4] [nM]	Emax [4] [%]
N#Cc1ncc(N2C(=O)C3(CCC3)N(c3ccc(OCCN4CCCC4)c(F)c3)C2=S)cc1C(F)(F)F [Cpd 66, 5-[8-[3-fluoro-4-(2-pyrrolidin-1-ylethoxy)phenyl]-5-oxo-7-thioxo-6,8-diazaspiro[3.4]octan-6-yl]-3-(trifluoromethyl)pyridine-2-carbonitrile]	> 15100	0.1	96.2	603	1150	98.9	> 15100	0.6						
N#Cc1ncc(N2C(=O)C3(CCC3)N(c3ccc(C(=O)NCc4ccco4)c(F)c3)C2=S)cc1C(F)(F)F [Cpd 76, 4-[6-[6-cyano-5-(trifluoromethyl)-3-pyridyl]-5-oxo-7-thioxo-6,8-diazaspiro[3.4]octan-8-yl]-2-fluoro-N-(2-furylmethyl)benzamide]	> 15100	1	91.6	851	1450	97.8	> 15100	1.9						
CCN1CCC(Oc2ccc(N3C(=S)N(c4cnc(C#N)c(C)c4)C(=O)C34CCC4)cc2)CC1 [Cpd 61, 5-[8-[4-[(1-ethyl-4-piperidyl)oxy]phenyl]-5-oxo-7-thioxo-6,8-diazaspiro[3.4]octan-6-yl]-3-methyl-pyridine-2-carbonitrile]	> 15100	0.7	100	380	1260	100	> 15100	1.1						
Cc1cncc(-c2ccc(N3C(=S)N(c4cnc(C#N)c(C)c4)C(=O)C34CCC4)cc2)c1 [Cpd 114, 3-methyl-5-[8-[4-(5-methyl-3-pyridyl)phenyl]-5-oxo-7-thioxo-6,8-diazaspiro[3.4]octan-6-yl]pyridine-2-carbonitrile]				355	240				> 15100	3.3	97.8	98.7	> 15100	0.7
COCCCNC(=O)c1ccc(N2C(=S)N(c3cnc(C#N)c(C(F)(F)F)c3)C(=O)C23CCC3)cc1F [Cpd 24, 4-[6-[6-cyano-5-(trifluoromethyl)-3-pyridyl]-5-oxo-7-thioxo-6,8-diazaspiro[3.4]octan-8-yl]-2-fluoro-N-(3-methoxypropyl)benzamide]	> 15100	0.1	99.5	229	331	100	> 15100	0						
N#Cc1ncc(N2C(=O)C3(CCC3)N(c3ccc(OCCCN4CCCC4)c(F)c3)C2=S)cc1C(F)(F)F [Cpd 55, 5-[8-[3-fluoro-4-(3-pyrrolidin-1-ylpropoxy)phenyl]-5-oxo-7-thioxo-6,8-diazaspiro[3.4]octan-6-yl]-3-(trifluoromethyl)pyridine-2-carbonitrile]				316	813				> 15100	0.6	100	101	> 15100	0.7

More lines, main results first:

EC50 [1, 5] [nM]	Emax [1, 6] [%]	Emax [2, 7] [%]	IC50 [2] [nM]	IC50 [3] [nM]	Emax [3, 7] [%]	EC50 [4, 8] [nM]	Emax [4, 6] [%]	SMILES	EC50 [1] [nM]	Emax [1] [%]	Emax [2] [%]	Emax [3] [%]	EC50 [4] [nM]	Emax [4] [%]
> 15100	-0.1	99.9	295	676	101	> 15100	-0.1	Cc1cc(N2C(=O)C3(CCC3)N(c3ccc(C(=O)Nc4ccccc4F)c(F)c3)C2=S)cnc1C#N [Cpd 11, 4-[6-(6-cyano-5-methyl-3-pyridyl)-5-oxo-7-thioxo-6,8-diazaspiro[3.4]octan-8-yl]-2-fluoro-N-(2-fluorophenyl)benzamide]						
> 15100	1.7	97.2	257	417	102	> 15100	1.8	COCCOc1ccc(N2C(=S)N(c3cnc(C#N)c(C)c3)C(=O)C23CCC3)cc1F [Cpd 100, 5-[8-[3-fluoro-4-(2-methoxyethoxy)phenyl]-5-oxo-7-thioxo-6,8-diazaspiro[3.4]octan-6-yl]-3-methyl-pyridine-2-carbonitrile]						
> 15100	-0.3	98.9	324	1350	99.6	> 15100	0.3	Cc1cc(N2C(=O)C3(CCC3)N(c3ccc(C(=O)NCC4CCOCC4)c(F)c3)C2=S)cnc1C#N [Cpd 3, 4-[6-(6-cyano-5-methyl-3-pyridyl)-5-oxo-7-thioxo-6,8-diazaspiro[3.4]octan-8-yl]-2-fluoro-N-(tetrahydropyran-4-ylmethyl)benzamide]						
> 15100	3.1	98.2	871	1170	97.4	> 15100	25.3	Cc1cc(N2C(=O)C3(CCC3)N(c3ccc(C(=O)Nc4cncc(F)c4)c(F)c3)C2=S)cnc1C#N [Cpd 113, 4-[6-(6-cyano-5-methyl-3-pyridyl)-5-oxo-7-thioxo-6,8-diazaspiro[3.4]octan-8-yl]-2-fluoro-N-(5-fluoro-3-pyridyl)benzamide]						
> 15100	0.1	99.7	724	2450	99.5	> 15100	0	N#Cc1ncc(N2C(=O)C3(CCC3)N(c3ccc(C(=O)NCCN4CCOCC4)c(F)c3)C2=S)cc1C(F)(F)F [Cpd 22, 4-[6-[6-cyano-5-(trifluoromethyl)-3-pyridyl]-5-oxo-7-thioxo-6,8-diazaspiro[3.4]octan-8-yl]-2-fluoro-N-(2-morpholinoethyl)benzamide]						
> 15100	3.5	98.6	631	2570	95.3	> 15100	1.1	Cc1cc(N2C(=O)C3(CCC3)N(c3ccc(OC4CCN(C)CC4)c(F)c3)C2=S)cnc1C#N [Cpd 116, 5-[8-[3-fluoro-4-[(1-methyl-4-piperidyl)oxy]phenyl]-5-oxo-7-thioxo-6,8-diazaspiro[3.4]octan-6-yl]-3-methyl-pyridine-2-carbonitrile]						
